Assay results published in patent US20240368150A1 (Hoffmann-La Roche Inc., priority 2021, published 2024).
Where two headings read alike, the source gives them in different places.

Tests used:
primary human T-cells [1] = assay: Proliferation assay after 5 days (CellTiter-Glo, CD3 stimulation; PBS counter screen); assay type: cell-based; details: Homo sapiens, T-cell, 120 h, CD3 stimulation; for Emax: 5 days, normalized to reference compound A1 as stimulator control = 100%, DMSO neutral control, read-out: Emax proliferation (% activation); for EC50: primary human T-cells, CellTiter-Glo after 5 days, EC50 of fitted sigmoidal curve, read-out: Tcell Proliferation CD3 EC50
In short: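 Luminescent ATP detection (CellTiter-Glo 2.0) quantified cell number 5 days after compounds went onto medium-only plates. Wells showing visible toxicity or precipitate were noted beforehand, and compounds that stimulated unstimulated cells or lowered viability were flagged.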

primary human T-cells [2] = tested on: primary human T-cells
Procedure: As readouts for T-cell activation, IL2 secretion after 24 hours and proliferation after 5 days was measured. Increases in IL2 secretion and proliferation upon compound treatment were assessed as the % of the maximum of reference compound A1. […] As a counter screen and to make sure that no unwanted TCR-independent activation was triggered, PBS conditions were run for all compounds.
For coating of plates, PBS++ with PBS−− or PBS++ with CD3 antibody (concentration depending on donor and determined by CD3 titrations) was added 100 μl/well to Poly-D Lysine coated 96-well plates. Plates were sealed and incubated at room temperature for 3 hours on a table-top rocking platform. After incubation, plates were washed once with PBS−− and filled with 40 μl/well culture medium only. Compounds were then added (see next section) to medium only plates. After 3 hours of culturing the T-cells, cells were filtered through a cell strainer (Miltenyi Biotech, #130-041-407), counted again and concentration was adjusted to 1.25 Mio/ml.
Cells were then seeded 80 μl/well to the 40 μl/well including dispensed compounds according to plate layout. By adding cells, compounds were further diluted 1:3, and resulting in 100 k cells/120 μl/well. After 24 hours 40 μl of supernatant was collected carefully from the top while not disturbing the cells and transferred into a round bottom 96 well plate. Collected and frozen supernatant was used for detection of IL2 using the IL-2 Human ProQuantum Immunoassay Kit (Invitrogen) or using the Human IL-2 ELISA Kit (Thermo Fisher).
Compounds were added in a 5 or 6pt dose response with the Tecan D300e Digital Dispenser, all conditions 3 times more concentrated than the end-concentration, since cells are added afterwards (80 μl cells to 40 μl prepared medium with treatment). The DR was starting at 20 μM or 10 μM final top concentration and a dilution factor of 3.333. The positive control was the reference compound A1 that was added in a dose response as well, additionally to 3 wells of only 20 μM representing the positive stimulator control. All wells were normalized with DMSO to a final concentration of 0.6% (0.2% end-concentration).
The immunoassay is done following the manufacturer's manual (Invitrogen, #A35603). Additional information: For the immunoassay, MicroAmp™ EnduraPlate™ Optical 384-Well plates are used. Frozen supernatant is thawed and centrifuged for 5 minutes at 1000×g, both steps at 4° C. After centrifugation, required sample amount is taken from the top, and in a separate LightCycler V-bottom plate (working plate) diluted with assay dilution buffer, dilution factor depending on the PBS or CD3 condition but at least 1:3. IL-2 standard and blanks are prepared in the same V-bottom plate, standard with a range of 0.0128-5000 pg/ml (extended version). After preparation, 5 μl of sample dilutions or standard/blanks are transferred to the optical 384-well plate (assay plate) and the 10 μl reaction protocol is being followed. For measurement, the QuantStudio 12K Flex system is used.
ELISA is done following the manufacturer's manual (Thermo Fisher Scientific, #88-7025-88). Additional information: For the ELISA Nunc MaxiSorp 96 well plates are used. Frozen supernatant is thawed and centrifuged for 5 minutes at 1000×g, both steps at 4° C. After that, required sample amount is taken from the top, and in a separate V-bottom plate diluted with ELISA diluent, dilution factor depending on the PBS or CD3 condition. IL-2 standard and blanks are prepared in the same V-bottom plate. After preparation, 50 μl of sample dilutions and 100 μl of standard or blanks are transferred to the Nunc plates.
CD3 and PBS plates were analysed separately in Genedata Screener using Roche Normalization PCT_POS_CTRL with DMSO set as Neutral Control and 20 μM of the reference compound A1 set as Stimulator Control/100%.
For CD3 conditions EC50 and Emax of the fitted sigmoidal curve were reported.

| SMILES | EC50 (primary human T-cells [2]) [µM] | Emax (primary human T-cells [1]) [%] | EC50 (primary human T-cells [1]) [µM] |
| --- | --- | --- | --- |
| CC(C)Nc1nnc(-c2ccc3c(c2)N(Cc2ccc(Cl)cc2)C(=O)[C@@H](N)CS3(=O)=O)o1 [Example 399, (3R)-3-amino-5-[(4-chlorophenyl)methyl]-7-[5-(isopropylamino)-1,3,4-oxadiazol-2-yl]-1,1-dioxo-2,3-dihydro-1λ^6,5-benzothiazepin-4-one] | 3.58 | 73 | 3.46 |
| N[C@H]1CS(=O)(=O)c2ccc(-c3nnc(N4CC(CO)(CCl)C4)o3)cc2N(Cc2ccc(Cl)cc2)C1=O [Example 400, (3R)-3-amino-7-[5-[3-(chloromethyl)-3-(hydroxymethyl)azetidin-1-yl]-1,3,4-oxadiazol-2-yl]-5-[(4-chlorophenyl)methyl]-1,1-dioxo-2,3-dihydro-1λ^6,5-benzothiazepin-4-one] | 4.05 | 72 | 5.22 |
| COCC1(Nc2nnc(-c3ccc4c(c3)N(Cc3ccc(Cl)cc3)C(=O)[C@@H](N)CS4(=O)=O)o2)CC(F)(F)C1 [Example 403, (3R)-3-amino-5-[(4-chlorophenyl)methyl]-7-[5-[[3,3-difluoro-1-(methoxymethyl)cyclobutyl]amino]-1,3,4-oxadiazol-2-yl]-1,1-dioxo-2,3-dihydro-1λ^6,5-benzothiazepin-4-one] | 3.68 | 83 | 1.15 |
| N[C@H]1CS(=O)(=O)c2ccc(-c3nnc(N4CC5(CCCO5)C4)o3)cc2N(Cc2ccc(Cl)cc2)C1=O [Example 404, (3R)-3-amino-5-[(4-chlorophenyl)methyl]-7-[5-(5-oxa-2-azaspiro[3.4]octan-2-yl)-1,3,4-oxadiazol-2-yl]-1,1-dioxo-2,3-dihydro-1λ^6,5-benzothiazepin-4-one] | 8.11 | 101 | 2.35 |
| N[C@H]1CS(=O)(=O)c2ccc(-c3nnc(N4CCOC5CC54)o3)cc2N(Cc2ccc(Cl)cc2)C1=O (stereo partly drawn) [Example 408, (3R)-3-amino-5-[(4-chlorophenyl)methyl]-7-[5-(2-oxa-5-azabicyclo[4.1.0]heptan-5-yl)-1,3,4-oxadiazol-2-yl]-1,1-dioxo-2,3-dihydro-1λ^6,5-benzothiazepin-4-one] | > 10 | 88 | 4.89 |
| N[C@H]1CS(=O)(=O)c2ccc(-c3nnc(N4CCOCC4)o3)cc2N(Cc2ccc(Cl)cc2)C1=O [Example 410, (3R)-3-amino-5-[(4-chlorophenyl)methyl]-7-(5-morpholino-1,3,4-oxadiazol-2-yl)-1,1-dioxo-2,3-dihydro-1λ^6,5-benzothiazepin-4-one] | 7.13 | 109 | 1.16 |
| N[C@H]1CS(=O)(=O)c2ccc(-c3nnc(N4CCOC5(CC5)C4)o3)cc2N(Cc2ccc(Cl)cc2)C1=O [Example 411, (3R)-3-amino-5-[(4-chlorophenyl)methyl]-7-[5-(4-oxa-7-azaspiro[2.5]octan-7-yl)-1,3,4-oxadiazol-2-yl]-1,1-dioxo-2,3-dihydro-1λ^6,5-benzothiazepin-4-one] | > 10 | 78 | 0.454 |
| N[C@H]1CS(=O)(=O)c2ccc(-c3nnc(C4(N)CCCC4)o3)cc2N(Cc2ccc(OC(F)(F)F)cc2)C1=O [Example 414, (3R)-3-amino-7-[5-(1-aminocyclopentyl)-1,3,4-oxadiazol-2-yl]-1,1-dioxo-5-[[4-(trifluoromethoxy)phenyl]methyl]-2,3-dihydro-1λ^6,5-benzothiazepin-4-one] | 4.39 | 83 | 2.59 |
| N[C@H]1CS(=O)(=O)c2ccc(-c3nnc(C4(N)CCOCC4)o3)cc2N(Cc2ccc(OC(F)(F)F)cc2)C1=O [Example 418, (3R)-3-amino-7-[5-(4-aminotetrahydropyran-4-yl)-1,3,4-oxadiazol-2-yl]-1,1-dioxo-5-[[4-(trifluoromethoxy)phenyl]methyl]-2,3-dihydro-1λ^6,5-benzothiazepin-4-one] | 5.74 | 52 | 9.5 |
| COC(=O)N1CC2CC(c3nnc(-c4ccc5c(c4)N(Cc4ccc(OC(F)(F)F)cc4)C(=O)[C@@H](N)CS5(=O)=O)o3)(C2)C1 [Example 422, Methyl 1-[5-[(3R)-3-amino-1,1,4-trioxo-5-[[4-(trifluoromethoxy)phenyl]methyl]-2,3-dihydro-1λ^6,5-benzothiazepin-7-yl]-1,3,4-oxadiazol-2-yl]-3-azabicyclo[3.1.1]heptane-3-carboxylate] | 0.835 | 102 | 1.83 |
| CC(C)(C)c1nnc(-c2ccc3c(c2)N(Cc2ccc(OCC4CC4)cc2)C(=O)[C@@H](N)CS3(=O)=O)o1 [Example 431, (3R)-3-amino-7-(5-tert-butyl-1,3,4-oxadiazol-2-yl)-5-[[4-(cyclopropylmethoxy)phenyl]methyl]-1,1-dioxo-2,3-dihydro-1λ^6,5-benzothiazepin-4-one] | 4.08 | 110 | 1.93 |

Now from value to compound, other results behind:

| EC50 (primary human T-cells [2]) [µM] | SMILES | Emax (primary human T-cells [1]) [%] | EC50 (primary human T-cells [1]) [µM] |
| --- | --- | --- | --- |
| 0.879 | N[C@H]1CS(=O)(=O)c2ccc(-c3nnc(N4CC5(CCC5)C4)o3)cc2N(Cc2ccc(Cl)cc2)C1=O [Example 398, (3R)-3-amino-7-[5-(2-azaspiro[3.3]heptan-2-yl)-1,3,4-oxadiazol-2-yl]-5-[(4-chlorophenyl)methyl]-1,1-dioxo-2,3-dihydro-1λ^6,5-benzothiazepin-4-one] | 115 | 3.48 |
| 1.64 | N[C@H]1CS(=O)(=O)c2ccc(-c3nnc(N4CC5(C4)CC(F)(F)C5)o3)cc2N(Cc2ccc(Cl)cc2)C1=O [Example 402, (3R)-3-amino-5-[(4-chlorophenyl)methyl]-7-[5-(6,6-difluoro-2-azaspiro[3.3]heptan-2-yl)-1,3,4-oxadiazol-2-yl]-1,1-dioxo-2,3-dihydro-1λ^6,5-benzothiazepin-4-one] | 93 | 0.928 |
| 1.32 | N[C@H]1CS(=O)(=O)c2ccc(-c3nnc(N4CC5(CCCOC5)C4)o3)cc2N(Cc2ccc(Cl)cc2)C1=O [Example 405, (3R)-3-amino-5-[(4-chlorophenyl)methyl]-7-[5-(6-oxa-2-azaspiro[3.5]nonan-2-yl)-1,3,4-oxadiazol-2-yl]-1,1-dioxo-2,3-dihydro-1λ^6,5-benzothiazepin-4-one] | 86 | 1.08 |
| 0.443 | N[C@H]1CS(=O)(=O)c2ccc(-c3nnc(C(F)(F)C(F)(F)F)o3)cc2N(Cc2ccc(OC(F)(F)F)cc2)C1=O [Example 415, (3R)-3-amino-1,1-dioxo-7-[5-(1,1,2,2,2-pentafluoroethyl)-1,3,4-oxadiazol-2-yl]-5-[[4-(trifluoromethoxy)phenyl]methyl]-2,3-dihydro-1λ^6,5-benzothiazepin-4-one] | 64 | 6.23 |
| 1.51 | CNC(C)(C)c1nnc(-c2ccc3c(c2)N(Cc2ccc(OC(F)(F)F)cc2)C(=O)[C@@H](N)CS3(=O)=O)o1 [Example 419, (3R)-3-amino-7-[5-[1-methyl-1-(methylamino)ethyl]-1,3,4-oxadiazol-2-yl]-1,1-dioxo-5-[[4-(trifluoromethoxy)phenyl]methyl]-2,3-dihydro-1λ^6,5-benzothiazepin-4-one] | 62 | 7.27 |
| 1.35 | CC(C)(C#N)c1nnc(-c2ccc3c(c2)N(Cc2ccc(OC(F)(F)F)cc2)C(=O)[C@@H](N)CS3(=O)=O)o1 [Example 420, 2-[5-[(3R)-3-amino-1,1,4-trioxo-5-[[4-(trifluoromethoxy)phenyl]methyl]-2,3-dihydro-1λ^6,5-benzothiazepin-7-yl]-1,3,4-oxadiazol-2-yl]-2-methyl-propanenitrile] | 167 | 1.59 |
| 3.24 | CN1CC(c2nnc(-c3ccc4c(c3)N(Cc3ccc(OC(F)(F)F)cc3)C(=O)[C@@H](N)CS4(=O)=O)o2)CC(F)(F)C1 (stereo partly drawn) [Example 421, (3R)-3-amino-7-[5-(5,5-difluoro-1-methyl-3-piperidyl)-1,3,4-oxadiazol-2-yl]-1,1-dioxo-5-[[4-(trifluoromethoxy)phenyl]methyl]-2,3-dihydro-1λ^6,5-benzothiazepin-4-one] | 123 | 2.48 |
| 1.5 | COC(=O)N1CCC(c2nnc(-c3ccc4c(c3)N(Cc3ccc(OC(F)(F)F)cc3)C(=O)[C@@H](N)CS4(=O)=O)o2)C1 (stereo partly drawn) [Example 423, methyl 3-[5-[(3R)-3-amino-1,1,4-trioxo-5-[[4-(trifluoromethoxy)phenyl]methyl]-2,3-dihydro-1λ^6,5-benzothiazepin-7-yl]-1,3,4-oxadiazol-2-yl]pyrrolidine-1-carboxylate] | 78 | 1.72 |
| 0.0694 | COC(F)(c1nnc(-c2ccc3c(c2)N(Cc2ccc(OC(F)(F)F)cc2)C(=O)[C@@H](N)CS3(=O)=O)o1)C(F)(F)F (stereo partly drawn) [Example 424, (3R)-3-amino-1,1-dioxo-7-[5-(1,2,2,2-tetrafluoro-1-methoxy-ethyl)-1,3,4-oxadiazol-2-yl]-5-[[14-(trifluoromethoxy)phenyl]methyl]-2,3-dihydro-1λ^6,5-benzothiazepin-4-one] | 88 | 0.0723 |
| 0.96 | CC(C)(C)c1nnc(-c2ccc3c(c2)N(Cc2ccc(OCC(F)(F)F)cc2)C(=O)[C@@H](N)CS3(=O)=O)o1 [Example 429, (3R)-3-amino-7-(5-tert-butyl-1,3,4-oxadiazol-2-yl)-1,1-dioxo-5-[[4-(2,2,2-trifluoroethoxy)phenyl]methyl]-2,3-dihydro-1λ^6,5-benzothiazepin-4-one] | 103 | 4.85 |
| 2.7 | CC(C)(C)c1nnc(-c2ccc3c(c2)N(Cc2ccc(OCC(F)F)cc2)C(=O)[C@@H](N)CS3(=O)=O)o1 [Example 432, (3R)-3-amino-7-(5-tert-butyl-1,3,4-oxadiazol-2-yl)-5-[[4-(2,2-difluoroethoxy)phenyl]methyl]-1,1-dioxo-2,3-dihydro-1λ^6,5-benzothiazepin-4-one] | 103 | 1.44 |
